# From patent US20240090503A1, “FUNGICIDAL OXADIAZOLES AND THEIR MIXTURES” (FMC CORPORATION, priority 2020, published 2024)
# Marks after values point to notes of the source that are not given here.
# Tests used:
# Type in all cases: in vivo
# [1] = tested on: Phakopsora pachyrhizi (the causal agent of Asian soybean rust); assay: Test A: preventive spray on soybean seedlings, Asian soybean rust, visual disease rating; details: soybean seedlings
# Summary of the method: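 Compound in acetone/water (50/50) with 250 ppm PEG400 sprayed to run-off on soybean seedlings; inoculated next day with Phakopsora pachyrhizi spores. Held 24 h at 22° C in saturated atmosphere, then 8 days in a 22° C growth chamber before visual rating as % disease control relative to controls.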
# [2] = tested on: Zymoseptoria tritici (the causal agent of wheat leaf blotch); assay: Test B: preventive spray on wheat seedlings, wheat leaf blotch, visual disease rating; details: wheat seedlings
# Text: General protocol for preparing test suspensions for Tests A-D: the test compounds were first dissolved in acetone in an amount equal to 3% of the final volume and then suspended at the desired concentration (in ppm) in acetone and purified water (50/50 mix by volume) containing 250 ppm of the surfactant PEG400 (polyhydric alcohol esters). The resulting test suspensions were then used in Tests A-D.
# The test suspension was sprayed to the point of run-off on wheat seedlings. The following day the seedlings were inoculated with a spore suspension of Zymoseptoria tritici (the causal agent of wheat leaf blotch) and incubated in a saturated atmosphere at 24° C. for 48 h, and then moved to a growth chamber at 20° C. for 17 days, after which time visual disease ratings were made.
# The test results for Tests A-C presented in Table A below for compounds of Formula 1 illustrate the fungicidal activity of component (a) contributing to the plant disease control utility of compositions comprising component (a) in combination with component (b) according to the present invention. In the Table, a rating of 100 indicates 100% disease control and a rating of 0 indicates no disease control (relative to the controls). A dash (-) indicates the compound was not tested. The test suspensions were sprayed at the concentration listed in the column “Rate in ppm”, unless otherwise indicated. An asterisk “*” next to the rating indicates a 250 ppm test suspension was used, a double asterisk “**” next to the rating indicates a 100 ppm test suspension was used, and a triple asterisk “***” next to the rating indicates a 50 ppm test suspension was used.
# [3] = tested on: Puccinia recondita f. sp. tritici (the causal agent of wheat leaf rust); assay: Test C: preventive spray on wheat seedlings, wheat leaf rust, visual disease rating; details: wheat seedlings
# Summary of the method: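 Wheat seedlings sprayed to run-off with compound in acetone/water (50/50) with 250 ppm PEG400, then inoculated with spores the following day. After 24 h saturated humidity at 20° C. and 6 days in growth chamber at 20° C., disease rated visually as % control relative to untreated controls.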
# [4] = test suspension 10 ppm, 100 = 100% disease control, 0 = no control
# [5] = 10 ppm test suspension, 100 = 100% disease control, 0 = no control
# [6] = 50 ppm test suspension, 100 = 100% disease control, 0 = no control
SMILES,"Test A disease control rating [1, 4]",Test C disease control rating ([3]; test suspension 10 ppm),also measured
CC(C)(C)NN1C(=O)C(Cl)=C(Oc2ccc(-c3noc(C(F)(F)F)n3)cc2)C1=O [compound 357],,,Test A disease control rating ([1]; test suspension 250 ppm): 98%; Test B disease control rating ([2]; test suspension 250 ppm): 99* %; Test C disease control rating ([3]; test suspension 250 ppm): 91%
O=C1CCN(Cc2ccc(-c3noc(C(F)(F)F)n3)cc2)CC1 [compound 150],,,Test A disease control rating ([1]; test suspension 255 ppm): 100%; Test B disease control rating ([2]; test suspension 255 ppm): 19%; Test C disease control rating ([3]; test suspension 255 ppm): 100%
CCOC(=O)c1cnn(CCn2cc(-c3noc(C(F)(F)F)n3)cn2)c1 [compound 307],,,Test A disease control rating ([1]; test suspension 50 ppm): 0%; Test B disease control rating ([2]; test suspension 250 ppm): 0* %; Test C disease control rating ([3]; test suspension 50 ppm): 0%
O=C(c1coc(Cc2ccc(-c3noc(C(F)(F)F)n3)cc2)n1)N1CCOCC1 [Compound 263],100%,94%,Test B disease control rating ([2]; test suspension 250 ppm): 95* %
CCNC(=O)c1ccc(COc2ccc(-c3noc(C(F)(F)F)n3)cc2)s1 [compound 352],87%,68%,Test B disease control rating ([2]; test suspension 250 ppm): 0* %
O=C(C1=NOC(Cc2ccc(-c3noc(C(F)(F)F)n3)cc2)C1)N1CCC1 (stereo not drawn) [compound 177],,,Test A disease control rating ([1]; test suspension 250 ppm): 100%; Test B disease control rating ([2]; test suspension 250 ppm): 97%; Test C disease control rating ([3]; test suspension 250 ppm): 100%
CCOC(=O)C1CCN(Cc2ccc(-c3noc(C(F)(F)F)n3)cc2)C1 (stereo not drawn) [compound 124],,,Test A disease control rating ([1]; test suspension 260 ppm): 100%; Test B disease control rating ([2]; test suspension 260 ppm): 50%; Test C disease control rating ([3]; test suspension 260 ppm): 100%
N#CCNC(=O)c1csc(Cc2ccc(-c3noc(C(F)(F)F)n3)cc2)c1 [compound 288],100%,100%,Test B disease control rating ([2]; test suspension 250 ppm): 91* %
FC(F)(F)c1nc(-c2ccc(CN3CCC4(CC3)OCCO4)cc2)no1 [compound 149],,,Test A disease control rating ([1]; test suspension 260 ppm): 100%; Test B disease control rating ([2]; test suspension 260 ppm): 72%; Test C disease control rating ([3]; test suspension 260 ppm): 100%
FC(F)(F)c1nc(-c2ccc(Cn3cc4cc(Br)ccc4n3)cc2)no1 [compound 133],,,Test A disease control rating ([1]; test suspension 255 ppm): 100%; Test B disease control rating ([2]; test suspension 255 ppm): 59%; Test C disease control rating ([3]; test suspension 255 ppm): 100%
CCN(CC)C(=O)c1coc(Cc2ccc(-c3noc(C(F)(F)F)n3)cc2)n1 [compound 262],100%,98%,Test B disease control rating ([2]; test suspension 250 ppm): 96* %
Cc1cc(C(F)(F)F)nn1Cc1ccc(-c2noc(C(F)(F)F)n2)cc1 [compound 132],,,Test A disease control rating ([1]; test suspension 270 ppm): 100%; Test B disease control rating ([2]; test suspension 270 ppm): 0%; Test C disease control rating ([3]; test suspension 270 ppm): 95%
O=c1cc(-c2noc(C(F)(F)F)n2)ccn1Cc1ccccc1F [compound 232],,,"pest or weed control at 250 µg/mL ([1]; Phakopsora pachyrhizi, 216 h, test suspension 250 ppm): 100%; pest or weed control at 250 µg/mL ([2]; Zymoseptoria tritici, 456 h, test suspension 250 ppm): 68%; pest or weed control at 250 µg/mL ([3]; Puccinia recondita, 168 h, test suspension 250 ppm): 100%"
NC(=O)c1csc(Cc2ccc(-c3noc(C(F)(F)F)n3)cc2)n1 [compound 343],100%,100%,Test B disease control rating ([2]; test suspension 250 ppm): 97* %
CNC(=O)c1cnn(CCCc2ccc(-c3noc(C(F)(F)F)n3)cc2)c1 [compound 415],,,"Test A disease control rating [1, 5]: 100%; Test C disease control rating [3, 5]: 96%"
CC(COC(=O)c1cnn(Cc2ccc(-c3noc(C(F)(F)F)n3)cc2)c1)=NOC1CCCCO1 (stereo not drawn) [compound 218],100%,98%,
CC(=O)COC(=O)c1cnn(Cc2ccc(-c3noc(C(F)(F)F)n3)cc2)c1 [compound 349],100%,100%,
COC(=O)c1ccc2nn(Cc3ccc(-c4noc(C(F)(F)F)n4)cc3)nc2c1 [compound 23],100%,100%,
O=c1ccc2ccccc2n1Cc1ccc(-c2noc(C(F)(F)F)n2)cc1 [compound 157],100%,100%,
Cn1c(C(F)(F)F)nn(Cc2ccc(-c3noc(C(F)(F)F)n3)cc2)c1=O [compound 267],,,Test A disease control rating ([1]; test suspension 50 ppm): 99%; Test C disease control rating ([3]; test suspension 50 ppm): 74%
CCOc1ccccc1OCCOC(=O)c1cnn(Cc2ccc(-c3noc(C(F)(F)F)n3)cc2)c1 [compound 268],100%,86%,
COCCNC(=O)c1nn(Cc2ccc(-c3noc(C(F)(F)F)n3)cc2)c2ccccc12 [compound 46],100%,100%,

SMILES,"Test A disease control rating [1, 4]",Test C disease control rating ([3]; test suspension 10 ppm),also measured
C#CCNC(=O)C1=NOC(Cc2ccc(-c3noc(C(F)(F)F)n3)s2)C1 (stereo not drawn) [compound 429],,,"Test A disease control rating [1, 6]: 100%; Test C disease control rating [3, 6]: 100%"
FC(F)(F)c1nc(-c2ccc(Cn3cc(I)cn3)cc2)no1 [compound 383],,,"Test A disease control rating [1, 5]: 71%; Test C disease control rating [3, 5]: 68%"
CCOC(=O)C1=NOC(Cc2ccc(-c3noc(C(F)(F)F)n3)s2)C1 (stereo not drawn) [compound 366],,,Test A disease control rating ([1]; test suspension 50 ppm): 100%; Test C disease control rating ([3]; test suspension 50 ppm): 100%
N#CCCCOC(=O)c1cnn(Cc2ccc(-c3noc(C(F)(F)F)n3)cc2)c1 [compound 274],100%,100%,
CNC(=O)c1nn(Cc2ccc(-c3noc(C(F)(F)F)n3)cc2)c2ccccc12 [compound 45],100%,99%,
CSc1nnn(Cc2ccc(-c3noc(C(F)(F)F)n3)cc2)c1C [compound 40],100%,92%,
COC(=O)c1ccc2nn(Cc3ccc(-c4noc(C(F)(F)F)n4)cc3)cc2c1 [compound 35],100%,98%,
CCNC(=O)c1cnn(Cc2ccc(-c3noc(C(F)(F)F)n3)cc2)c1 [compound 67],100%,99%,
O=C(OCCCCl)c1cnn(Cc2ccc(-c3noc(C(F)(F)F)n3)cc2)c1 [compound 448],,,"Test A disease control rating [1, 5]: 100%; Test C disease control rating [3, 5]: 100%"
Cc1cc(C(=O)O)nn1Cc1ccc(-c2noc(C(F)(F)F)n2)cc1 [compound 179],98%,9%,
Cc1c2c(Br)cccc2nn1Cc1ccc(-c2noc(C(F)(F)F)n2)cc1 [compound 37],99%,86%,
CCOC(=O)c1cc(C(=O)OCC)n(Cc2ccc(-c3noc(C(F)(F)F)n3)cc2)n1 [compound 154],,,Test A disease control rating ([1]; test suspension 50 ppm): 100%; Test C disease control rating ([3]; test suspension 50 ppm): 100%
Cc1cc(C(F)(F)F)n(Cc2ccc(-c3noc(C(F)(F)F)n3)cc2)n1 [compound 127],0%,0%,
C=CCON=Cc1cnn(Cc2ccc(-c3noc(C(F)(F)F)n3)cc2)c1 [compound 386],,,"Test A disease control rating [1, 5]: 100%; Test C disease control rating [3, 5]: 100%"
CCOC(=O)c1cc(C(C)C)n(Cc2ccc(-c3noc(C(F)(F)F)n3)cc2)n1 [compound 80],100%,68%,
Cc1ccc(F)cc1OCc1ccc(-c2noc(C(F)(F)F)n2)s1 [compound 375],100%,98%,
CCC#CCOC(=O)c1cnn(Cc2ccc(-c3noc(C(F)(F)F)n3)cc2)c1 [compound 339],100%,98%,
CCC(C)OC(=O)c1cnn(Cc2ccc(-c3noc(C(F)(F)F)n3)cc2)c1 (stereo not drawn) [compound 481],,,"Test A disease control rating [1, 5]: 100%; Test C disease control rating [3, 5]: 100%"
O=C(OCC#Cc1ccccc1)c1cnn(Cc2ccc(-c3noc(C(F)(F)F)n3)cc2)c1 [compound 299],100%,86%,
CC(COC(=O)c1cnn(Cc2ccc(-c3noc(C(F)(F)F)n3)cc2)c1)=NO [compound 223],100%,91%,
Cc1nn(Cc2ccc(-c3noc(C(F)(F)F)n3)cc2)c2ccc(Br)cc12 [compound 51],99%,68%,
COC(=O)c1cccc2cnn(Cc3ccc(-c4noc(C(F)(F)F)n4)cc3)c12 [compound 47],100%,74%,
